Results from EP0840781B1, “METHODS AND DEVICES FOR THE REMOVAL OF PSORALENS FROM BLOOD PRODUCTS” (Cerus Corporation, priority 1995, dated 1996).

Assays:
[1] = HPLC retention time as rough estimate of hydrophobicity; type: physicochemical; details: C-18 reversed phase column, methanol / 25 mM KH2PO4 pH 3.5 gradient
Experimental: Adsorption data were then obtained by HPLC. analysis on the test and control samples. Specifically, a 200 µl sample volume of PC was removed from each tube following the incubation period (special care being taken to ensure that no adsorbent particles were removed with the test samples). […] The addition of methanol lyses platelets and precipitates plasma proteins so that psoralen contained within the platelets is not excluded by the assay.
Since each of the psoralens were analyzed using the same type of HPLC assay, one can use the psoralens' relative retention times to rank them according to increasing hydrophobicity. […] Strong interactions with cells or plasma proteins could compete with adsorption, thereby interfering with resin binding.

R17 = experiment: r-17 bacteriophage assay: R17 treated with compound and UVA, remaining titer by plaque count on Hfr 3000 bacteria; type: cell-based; details: 32 µM; 1 Minute Irradiation; Starting Titer Approx. 7.5 Logs (Table 6)
Experimental: In the r-17 assay, the bacteriophage was placed in a solution with each compound tested and was then irradiated. The ability of the phage to subsequently infect bacteria and inhibit their growth was measured. The bacteriophage was selected for its relatively accessible nucleic acid such that the culture growth inhibition would accurately reflect nucleic acid damage by the test compounds. The bacteriophage assay for nucleic acid binding to test compounds offers a safe and inexpensive procedure to identify compounds likely to display efficient pathogen inactivation. Previous experiments support that the r-17 assay accurately measures HIV-1 sensitivity to similar compounds. […] Modified Eagles Medium (DMEM) to a final phage concentration of 10^9/mL. An aliquot (0.5 mL) was transferred to a 1.5 mL snap-top polyethylene tube. […] Louis, MO). The tubes were placed in a light device as described in EXAMPLE 1 and irradiated for between 1 and 10 minutes. […] To make the dilutions. a 0.100 mL aliquot of the irradiated solution of phage and test compound was added to the first dilution tube of 0.4 mL of media then 0.020 mL of this solution was added to the second tube of 0.5 mL medium (1:25). […] After the top agar hardened, the plates were incubated at 37 °C overnight. The plaque forming units were then counted the following morning and the titer of the phage remaining after phototreatment was calculated based on the dilution factors. The following controls were run: the "phage only" in which phage was not treated with test compound and not irradiated (listed as "starting titer" in the tables below); the "UV only" in which the phage was irradiated in the absence of test compound; and the "dark" control in which the phage/test compound solution was not irradiated before it was diluted and plated. Compounds described herein were also tested at a constant concentration for varying doses of UV light. […] The compound tested was added at the desired concentration and the samples were vortexed. […] Between each 1.0 J/cm^2 intervals, 100µL was removed from each sample and placed in the first corresponding dilution tube, then five sequential dilutions were performed for each compound tested, at all 3 irradiation doses, as described above in this example. […] The contents of each tube was poured into its own LB plate and the plates were incubated overnight at 37 °C. Plaques were counted by visual inspection the following morning.

Pseudomonas = experiment: Bacterial inactivation by compound plus UVA, colony forming units; type: cell-based; details: 16 µM; 5 J/cm^2 irradiation; starting titer 6.5 logs
Experimental: In this example bacterial inactivation by the photoreactive nucleic acid binding compounds described herein was measured as a function of the ability of the bacteria to subsequently replicate. A gram negative bacteria was chosen as representative of the more difficult bacterial strains to inactivate.
The bacteria a strain of Pseudomonas, was inoculated into LB with a sterile loop and grown overnight in a shaker at 37°C. Based on the approximation that one OD at 610 nm is equivalent to 5 x 10^8 colony forming units (cfu)/mL, a 1:10 dilution of the culture was measured on a spectrophotometer. (manufactured by Shimatsu). The bacterial culture was added to a solution of 15% fetal bovine serum in DMEM to a final bacteria concentration of approximately 10^6/mL. An aliquot (0.8 mL) was transferred to a 1.5 mL snap-top polyethylene tube. An aliquot (0.004-0.040 mL) of the test compound stock solution prepared in water, ethanol or dimethylsulfoxide at 0.80-8.0 mM was added to the tube. Compounds were tested at a concentration of 16 µM. The tubes were placed in a light device as described in EXAMPLE I and irradiated with 1.3 J/cm^2, 1.2 J/cm^2, and finally 2.5 J/cm^2, for a total of 5 J/cm^2. 150 µL were removed for testing after each pulse period. Sterile 13 mL dilution tubes were prepared; each test compound required one tube with 0.4 mL of LB broth and four tubes containing 0.5 mL of LB broth. To make the dilutions, a 0.050 mL aliquot of the irradiated solution of phage and test compound was added to the first dilution tube of […] of media then 0.050 mL of this solution was added to the second tube of 0.5 mL medium (1:10). The second solution was then diluted serially (1:10) into the remaining tubes. 100 µL of the original sample and each dilution are plated separately onto LB agar plates and incubated at 37 °C overnight. The colony forming units were then counted the following morning and the titer of the phage remaining after phototreatment was calculated based on the dilution factors.
The following controls were run: the "bacteria only" in which bacteria was not treated with test compound and not irradiated (listed as "starting titer" in the tables below); the "UV only" in which the bacteria was irradiated in the absence of test compound. Dark controls were not performed here for reasons set forth in Example 12 above.

[2] = test system: Salmonella typhimurium tester strains TA97a, TA98, TA100, TA102, TA1537 and TA1538; details: two-fold or greater increase in revertants above background and dose dependent response; TA100, TA102
Source text: The second property that is important in testing a compound for use in methods described herein is mutagenicity. The most widely used mutagen/carcinogen screening assay is the Ames test. This assay is described by D.M. Maron and B.N. Ames in Mutation Research 113:173 ( 1983) and a specific screen is described in detail in Example 17, below. The Ames test utilizes several unique strains of Salmonella typhimurium that are histidine- dependent for growth and that lack the usual DNA repair enzymes. The frequency of normal mutations that render the bacteria independent of histidine (i.e., the frequency of spontaneous revertants) is low. The test allows one to evaluate the impact of a compound on this revenant frequency.
Because some substances are not mutagenic by themselves, but are converted to a mutagen by metabolic action, the compound to be tested is mixed with the bacteria on agar plates along with the liver extract. The liver extract serves to mimic metabolic action in an animal.
The mixtures are allowed to incubate. Growth of bacteria (if any) is checked by counting colonies.
In this example the compounds described herein are tested for their dark mutagenicity using an Ames assay. The procedures used for the Salmonella mutagenicity test as described in detail by Maron and Ames were followed exactly. Maron, D.M. and B.N. Ames, Mutation Research 113: 173 ( 1983). A brief description for each procedure is given here. The tester strains TA97a, TA98, TA 100, TA102, TA1537 and TA1538 were obtained from Dr. Ames. TA97a, TA98, TA1537 and TA1538 are frameshift tester strains. TA100 and TA102 are base-substitution tester strains. Upon receipt each strain was cultured under a variety of conditions to confirm the genotypes specific to the strains.
The first tests done with the strains were to determine the range of spontaneous reversion for each of the strains. With each mutagenicity experiment the spontaneous reversion of the tester strains to histidine independence was measured and expressed as the number of spontaneous revertants per plate. This served as the background controls.
For all experiments, the pre-incubation procedure was used. In this procedure one vial of each tester strain was thawed and 20 µL of this culture was added to 6 mL of Oxoid Nutrient Broth #2. This solution was allowed to shake for 10 hours at 37°C. In the pre-incubation procedure, 0.1 mL of this overnight culture was added to each of the required number of sterile test tubes. To half of the tubes 0.5 mL of a 10% S-9 solution containing Aroclor 1254 induced rat liver extract (Molecular Toxicology Inc., Annapolis, MD), and MgCl2, KCl, glucose-6-phosphate, NADP, and sodium phosphate buffer (Sigma, St. Louis, Missouri) were added. To the other half of the tubes 0.5 mL of 0.2M sodium phospate buffer, pH 7.4, was used in place of the S-9 mixture (the - S9 samples). Finally 0.1 mL of the test solution containing either 0, 0.1, 0.5, 1, 5, 10, 50, 100, 250, or 500 µg/mL of the test compound was added. The 0.7 mL mixture was vonexed and then pre-incubated while shaking for 20 minutes at 37°C. After shaking, 2 mL of molten top agar supplemented with histidine and biotin were added to the 0.7 mL mixture and immediately poured onto a minimal glucose agar plate (volume of base agar was 20 mL). The top agar was allowed 30 minutes to solidify and then the plates were inverted and incubated for 44 hours at 37°C. After incubation the number of revertant colonies on each plate were counted.
Maron and Ames (1983) describe the conflicting views with regard to the statistical treatment of data generated from the test.

Row | SMILES | HPLC retention time (rough estimate of hydrophobicity) [1] [min] | R17 log kill (32 µM) (R17) | log kill of bacteria (Pseudomonas) (Pseudomonas) [logs] | base-substitution mutagenicity (Ames, summary) [2]
1 | COc1c2occc2c(Br)c2ccc(=O)oc12 [Psoralen B, 5-bromo-8-methoxypsoralen] | 20.0 | – | – | –
2 | CC[N+](CC)(CC)Cc1c(C)oc2c(C)c3oc(=O)cc(C)c3cc12 [Psoralen A, 4'-(triethylamino) methyl-4,5',8-trimethylpsoralen] | 7.8 | – | – | –
3 | COc1c2occc2cc2ccc(=O)oc12 [Compound 8-MOP, 8-Methoxypsoralen, reference compound] | – | 0 | 1.9 | weak base-substitution mutagen in TA102 at 500µg/plate
4 | CCN(CC)CCCOc1c2occc2c(Br)c2ccc(=O)oc12 [Psoralen C, 5-bromo-8-(diethylaminopropyloxy)-psoralen] | 12.0 | – | – | –
